Measurements published in ChEMBL document CHEMBL1201862, “PubChem BioAssay data set” (2004).
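Cultured in 96-well plates, cells were exposed to test compound for 48 hours across five concentrations. Here, GI50 denotes the concentration required for 50% inhibition of growth.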 Activity calls are given as the source filed them. Cut-off read from the data, not from the text of the source: active = GI50 up to about 1.1 µM and inactive = higher.

Tests used:
Experiment in all cases: NCI anticancer screen, dose series, 48 h
UO-31 = system: UO-31
K562 = system: K562
OVCAR-8 = system: OVCAR-8
HL-60 = system: HL-60
NCI-H460 = system: NCI-H460
TK-10 = system: TK-10
ACHN = system: ACHN
SNB-75 = system: SNB-75
Hs-578T = system: Hs-578T
DU-145 = system: DU-145
NCI-H226 = system: NCI-H226
MDA-MB-231 = system: MDA-MB-231
KM12 = system: KM12
A498 = system: A498
UACC-62 = system: UACC-62
SK-MEL-28 = system: SK-MEL-28
CAKI-1 = system: CAKI-1
SF-539 = system: SF-539
NCI/ADR-RES = system: NCI/ADR-RES
RPMI-8226 = system: RPMI-8226

Measured: GI50

O=C1c2ccccc2C(=O)N1CCc1nc(-c2ccccc2)c[nH]1
inactive: UO-31 > 100 µM | K562 > 100 µM | OVCAR-8 > 100 µM | HL-60 > 100 µM | NCI-H460 > 100 µM | TK-10 > 100 µM | ACHN > 100 µM | SNB-75 > 100 µM | Hs-578T > 100 µM | DU-145 > 100 µM | NCI-H226 > 100 µM | MDA-MB-231 > 100 µM | KM12 > 100 µM | A498 > 100 µM | UACC-62 > 100 µM | SK-MEL-28 > 100 µM | CAKI-1 > 100 µM | SF-539 > 100 µM | NCI/ADR-RES > 100 µM

COc1ccc(Nc2nc3cc(C(F)(F)F)ccc3nc2C(=O)O)cc1
inactive: UO-31 13.6 µM | K562 15.2 µM | OVCAR-8 19.3 µM | HL-60 19.9 µM | NCI-H460 23.9 µM | TK-10 34.4 µM | ACHN 28.3 µM | SNB-75 17.6 µM | Hs-578T 21.1 µM | DU-145 20.4 µM | NCI-H226 15.6 µM | MDA-MB-231 31.6 µM | KM12 24 µM | A498 15.1 µM | UACC-62 13.6 µM | SK-MEL-28 31.7 µM | CAKI-1 33.2 µM | NCI/ADR-RES 23.1 µM

O=C(/C=C1\N=C(c2ccccc2)N(c2ccc3c(c2)Sc2cc(N4C(=O)/C(=C/C(=O)/C=C/c5ccccc5)N=C4c4ccccc4)ccc2N3)C1=O)/C=C/c1ccccc1
inactive: UO-31 81.1 µM | K562 30.8 µM | OVCAR-8 42.5 µM | HL-60 40.6 µM | NCI-H460 58.7 µM | TK-10 45.1 µM | ACHN > 100 µM | SNB-75 17.3 µM | Hs-578T 33.2 µM | RPMI-8226 31.6 µM | DU-145 > 100 µM | MDA-MB-231 38 µM | KM12 > 100 µM | A498 27.9 µM | UACC-62 18.2 µM | SK-MEL-28 65.2 µM | CAKI-1 42.6 µM | NCI/ADR-RES 41.6 µM

CCOC(=O)c1nc2ccccc2nc1Oc1cc(OC)cc(OC)c1
inactive: UO-31 > 100 µM | K562 > 100 µM | OVCAR-8 > 100 µM | HL-60 8.41 µM | NCI-H460 39.5 µM | TK-10 > 100 µM | ACHN > 100 µM | Hs-578T 27.9 µM | RPMI-8226 > 100 µM | DU-145 > 100 µM | NCI-H226 > 100 µM | MDA-MB-231 > 100 µM | KM12 76.9 µM | A498 > 100 µM | UACC-62 > 100 µM | SK-MEL-28 > 100 µM | SF-539 61.7 µM | NCI/ADR-RES > 100 µM

CN(C)Cc1cc(C(=O)/C=C/c2ccc(/C=C/C(=O)c3cc(CN(C)C)c(O)c(CN(C)C)c3)cc2)cc(CN(C)C)c1O
inactive: UO-31 71.8 µM | K562 25.3 µM | OVCAR-8 49.3 µM | HL-60 14.1 µM | TK-10 36.8 µM | ACHN 23.4 µM | SNB-75 > 100 µM | Hs-578T 58.2 µM | RPMI-8226 23.4 µM | DU-145 38.5 µM | MDA-MB-231 20.3 µM | KM12 17.7 µM | A498 57.9 µM | UACC-62 25.9 µM | SK-MEL-28 29 µM | CAKI-1 39 µM | SF-539 24.4 µM | NCI/ADR-RES > 100 µM

O=c1c(C(c2ccc(O)cc2)c2c(O)oc3ccccc3c2=O)c(O)oc2ccccc12
inactive: UO-31 > 100 µM | OVCAR-8 48.8 µM | NCI-H460 > 100 µM | TK-10 > 100 µM | ACHN > 100 µM | SNB-75 30.9 µM | Hs-578T > 100 µM | DU-145 > 100 µM | NCI-H226 > 100 µM | MDA-MB-231 31.6 µM | KM12 > 100 µM | A498 > 100 µM | UACC-62 79.1 µM | SK-MEL-28 55.5 µM | CAKI-1 85.9 µM | NCI/ADR-RES > 100 µM
